Experimental data: US20260138976A1 (Hoffmann-La Roche Inc., priority 2022, published 2026)

Tests used:
MV-3 cells = assay: T-cell - TCB - MV3 killing assay; assay type: cell-based, human; details: for Emax: Homo sapiens, MV-3, 120 h, % TCL normalized: MCSP-TCB only = neutral control, 20 μM reference compound A1 = 100%, read-out: MSCP TCB killing MV-3 cells 5 d Emax (%); for EC50: primary human T-cells + MV-3 RFP cells, MCSP-TCB 1.5 pM-5 pM, 120 hours imaging, read-out: MSCP TCB killing MV-3 cells 5 d EC50
Protocol: All culturing steps are executed at 5% CO2, 37° C. and 95% humidity. MV-3 RFP cells are cultured in MV-3 medium (DMEM+10% FBS, 1× PenStrep and 0.5 μg/mL Puromycin) for at least 3 weeks. Cultured MV-3 cells at 80% confluency are washed once with PBS−− and trypsinized until detached. […] Cells are seeded with 100 μL/well into a 96-well plate (TTP, #92696), and placed for 40 minutes without moving at room temperature in order to achieve evenly distributed attachment of cells. Plates are then incubated until further use.
On the next day, expanded primary human T-cells are thawed and resuspended in T-cell medium to 4*10^6 cells/mL. For 3 hours, they are cultured in a 6-well plate with 6 mL per well at maximum. After culturing the T-cells, they are filtered through a cell strainer (Miltenyi Biotech, #130-041-407), counted again, and cell concentration is adjusted to 2*10^6 cells/mL.
MCSP-TCB or PBS are pre-diluted in T-cell medium (concentration depending on T-cell donor), 4 times more concentrated than the end-concentration. 60 μL/well of pre-dilutions are then distributed into a round bottom plate (Costar, #3799) according to plate layout. Compounds are added in a 9 pt dose response with the Tecan D300e Digital Dispenser, as well 4 times more concentrated than the end-concentration. DMSO concentration of all wells is adjusted to 0.8%, resulting in 0.2% as final concentration.
60 μL per well of T-cell suspension are added to the prepared round bottom plate and resuspended with a manual multichannel. 100 μL/well of the resuspended T-cell suspension including treatments are then transferred cautiously to the over-night cultured MV-3 cells according to plate layout. 100 μL T-cell medium only is added to the outer MV-3 wells only. Final compound DR is starting at 20 μM with a dilution factor of 3.333. Final TCB concentration is between 1.5 pM to 5 pM and was determined for each T-cell donor individually by running TCB titrations. For each donor, a TCB concentration was chosen which corresponds to 10-20% MV3 baseline cell killing in the absence of compound treatment. Positive control is the reference compound A1 which is added in a DR, as well as additional wells with only 20 μM. 20 μM of reference compound A1 represent the positive stimulator control, TCB only (DMSO wells) the neutral control.
After transfer of T-cells with treatment pre-dilutions, MV-3 cells are imaged by time-lapse microscopy using IncucyteZOOM™ (Essen BioScience, MI, USA). Imaging is performed every 3 hours for a total of 120 hours (10× objective, phase and red image channels, acquisition time 400 ms, Green/Red 4614 optical module). RFP object count per well is analysed in the IncucyteZOOM™ Software (Version 2019B Rev2) with a mask that was previously created and optimized for MV-3 cells. Raw data is exported as object count/well and values are normalized as % TCL compared to wells with MV-3 only, representing 100% growth and therefore 0% TCL.
Calculated % TCL values are analysed in Genedata Screener using Roche Normalization PCT_POS_CTRL with MCSP-TCB only set as Neutral Control and 20 μM of the reference compound A1 set as Stimulator Control/100%.
Induced TCL by compounds without TCB treatment or toxicity (observed in the PBS condition) were be flagged.

primary human T-cells = assay: Proliferation assay (5 days, CellTiter-Glo, CD3-stimulated T-cells); assay type: cell-based; details: for Emax proliferation (% activation): CD3 condition, normalised to DMSO (neutral) and 20 μM reference compound A1 = 100%; for EC50: Homo sapiens, T-cell, 120 h, CD3-stimulated primary human T-cells, 5 days, CellTiter-Glo, fitted sigmoidal curve, read-out: Tcell Proliferation CD3 EC50
In short: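 Expanded primary human T-cells, 100 k cells/well, were stimulated with plate-coated CD3 antibody (donor-titrated) and given compound in a 5 or 6 pt dose response from 20 μM or 10 μM final top, 0.2% DMSO final. ATP was read by CellTiter-Glo after 5 days. EC50 and Emax were reported as % of 20 μM reference compound A1.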

With `N[C@H]1CS(=O)(=O)c2cc(F)c(-c3noc(C4(CO)CCCO4)n3)cc2N(Cc2ccc(-c3noc(C(F)(F)F)n3)cc2)C1=O` (stereo partly drawn) [Example 18, (3R)-3-amino-8-fluoro-7-[5-[2-(hydroxymethyl)tetrahydrofuran-2-yl]-1,2,4-oxadiazol-3-yl]-1,1-dioxo-5-[[4-[5-(trifluoromethyl)-1,2,4-oxadiazol-3-yl]phenyl]methyl]-2,3-dihydro-1λ^6,5-benzothiazepin-4-one] the Emax (MV-3 cells) was 67%, the EC50 (MV-3 cells) was 29 nM and the “Emax proliferation (% activation)” value (primary human T-cells) was 275 % activation. The EC50 (primary human T-cells) was 445 nM.

In the case of `CC(C)(C)c1nnc(-c2ccc3c(c2)N(Cc2ccc(-c4nnc(C(F)(F)F)o4)cc2)C(=O)[C@@H](N)CS3(=O)=O)o1` [Example 24, (3R)-3-amino-7-(5-tert-butyl-1,3,4-oxadiazol-2-yl)-1,1-dioxo-5-[[4-[5-(trifluoromethyl)-1,3,4-oxadiazol-2-yl]phenyl]methyl]-2,3-dihydro-1λ^6,5-benzothiazepin-4-one], the Emax (MV-3 cells) is reported as 108%, the EC50 (MV-3 cells) is reported as 273 nM and the “Emax proliferation (% activation)” value (primary human T-cells) is reported as 142 % activation. The EC50 (primary human T-cells) was 775 nM.

In the case of `CC(N)(c1nnc(-c2ccc3c(c2)N(Cc2ccc(-c4noc(C(F)(F)F)n4)cc2)C(=O)[C@@H](N)CS3(=O)=O)o1)C(F)(F)F` (stereo partly drawn) [Example 32, (3R)-3-amino-7-[5-(1-amino-2,2,2-trifluoro-1-methyl-ethyl)-1,3,4-oxadiazol-2-yl]-1,1-dioxo-5-[[4-[5-(trifluoromethyl)-1,2,4-oxadiazol-3-yl]phenyl]methyl]-2,3-dihydro-1λ^6,5-benzothiazepin-4-one], the Emax (MV-3 cells) is reported as 100%, the EC50 (MV-3 cells) is reported as 120 nM and the “Emax proliferation (% activation)” value (primary human T-cells) is reported as 153 % activation. For the same compound, the EC50 (primary human T-cells) was 468 nM.

For `CC(C#N)c1nnc(-c2ccc3c(c2)N(Cc2ccc(-c4noc(C(F)(F)F)n4)cc2)C(=O)[C@@H](N)CS3(=O)=O)o1` (stereo partly drawn) [Example 35, 2-[5-[(3R)-3-amino-1,1,4-trioxo-5-[[4-[5-(trifluoromethyl)-1,2,4-oxadiazol-3-yl]phenyl]methyl]-2,3-dihydro-1λ^6,5-benzothiazepin-7-yl]-1,3,4-oxadiazol-2-yl]propanenitrile], the Emax (MV-3 cells) was 91%, the EC50 (MV-3 cells) was 373 nM and the “Emax proliferation (% activation)” value (primary human T-cells) was 99 % activation. It also gave an EC50 (primary human T-cells) of 2490 nM.

`COC(F)(c1nnc(-c2ccc3c(c2)N(Cc2ccc(-c4noc(C(F)(F)F)n4)cc2)C(=O)[C@@H](N)CS3(=O)=O)o1)C(F)(F)F` (stereo partly drawn) [Example 37, (3R)-3-amino-1,1-dioxo-7-[5-(1,2,2,2-tetrafluoro-1-methoxy-ethyl)-1,3,4-oxadiazol-2-yl]-5-[[4-[5-(trifluoromethyl)-1,2,4-oxadiazol-3-yl]phenyl]methyl]-2,3-dihydro-1λ^6,5-benzothiazepin-4-one] was tested, and the Emax (MV-3 cells) was 133%, the EC50 (MV-3 cells) was 58 nM and the “Emax proliferation (% activation)” value (primary human T-cells) was 173 % activation. It also gave an EC50 (primary human T-cells) of 304 nM.

With `N[C@H]1CS(=O)(=O)c2ccc(-c3nnc(C4(N)CCCCC4)o3)cc2N(Cc2ccc(-c3noc(C(F)(F)F)n3)cc2)C1=O` [Example 39, (3R)-3-amino-7-[5-(1-aminocyclohexyl)-1,3,4-oxadiazol-2-yl]-1,1-dioxo-5-[[4-[5-(trifluoromethyl)-1,2,4-oxadiazol-3-yl]phenyl]methyl]-2,3-dihydro-1λ^6,5-benzothiazepin-4-one] the Emax (MV-3 cells) was 72%, the EC50 (MV-3 cells) was 190 nM and the “Emax proliferation (% activation)” value (primary human T-cells) was 91 % activation. For the same compound, the EC50 (primary human T-cells) was 181 nM.

In the case of `N[C@H]1CS(=O)(=O)c2ccc(-c3nnc(C4(CO)CCCO4)o3)cc2N(Cc2ccc(-c3noc(C(F)(F)F)n3)cc2)C1=O` (stereo partly drawn) [Example 54, (3R)-3-amino-7-[5-[2-(hydroxymethyl)tetrahydrofuran-2-yl]-1,3,4-oxadiazol-2-yl]-1,1-dioxo-5-[[4-[5-(trifluoromethyl)-1,2,4-oxadiazol-3-yl]phenyl]methyl]-2,3-dihydro-1λ^6,5-benzothiazepin-4-one], the Emax (MV-3 cells) is reported as 86%, the EC50 (MV-3 cells) is reported as 246 nM and the “Emax proliferation (% activation)” value (primary human T-cells) is reported as 94 % activation. The EC50 (primary human T-cells) was 892 nM.

`N[C@H]1CS(=O)(=O)c2ccc(-c3nnc(N4CCOC(F)(F)C4)o3)cc2N(Cc2ccc(-c3nnc(C(F)(F)F)o3)cc2)C1=O` [Example 80] was tested, and the Emax (MV-3 cells) was 86%, the EC50 (MV-3 cells) was 257 nM and the “Emax proliferation (% activation)” value (primary human T-cells) was 130 % activation. It also gave an EC50 (primary human T-cells) of 402 nM.

`Cn1nc(C(F)(F)F)cc1-c1ccc(CN2C(=O)[C@@H](N)CS(=O)(=O)c3ccc(-c4nnc(C(C)(C)C)o4)cc32)cc1` [Example 92] was tested, and the Emax (MV-3 cells) was 99%, the EC50 (MV-3 cells) was 120 nM and the “Emax proliferation (% activation)” value (primary human T-cells) was 170 % activation. It also gave an EC50 (primary human T-cells) of 835 nM.

With `N[C@H]1CS(=O)(=O)c2ccc(-c3nnc(N4CCC(F)(F)CC4)o3)cc2N(Cc2ccc(-n3ccc(C(F)(F)F)n3)cc2)C1=O` [Example 162, (3R)-3-amino-7-[5-(4,4-difluoro-1-piperidyl)-1,3,4-oxadiazol-2-yl]-1,1-dioxo-5-[[4-[3-(trifluoromethyl)pyrazol-1-yl]phenyl]methyl]-2,3-dihydro-1λ^6,5-benzothiazepin-4-one] the Emax (MV-3 cells) was 100%, the EC50 (MV-3 cells) was 168 nM and the “Emax proliferation (% activation)” value (primary human T-cells) was 186 % activation. For the same compound, the EC50 (primary human T-cells) was 563 nM.

`N[C@H]1CS(=O)(=O)c2ccc(-c3nnc(C(F)C(F)(F)F)o3)cc2N(Cc2ccc(-c3noc(C4CC4)n3)cc2)C1=O` (stereo partly drawn) [Example 168, (3R)-3-amino-5-[[4-(5-cyclopropyl-1,2,4-oxadiazol-3-yl)phenyl]methyl]-1,1-dioxo-7-[5-(1,2,2,2-tetrafluoroethyl)-1,3,4-oxadiazol-2-yl]-2,3-dihydro-1λ^6,5-benzothiazepin-4-one] was tested, and the “Emax proliferation (% activation)” value (primary human T-cells) was 62 % activation and the EC50 (primary human T-cells) was 2620 nM.

`CC(O)(c1nnc(-c2ccc3c(c2)N(Cc2ccc(-c4noc(C5CC5)n4)cc2)C(=O)[C@@H](N)CS3(=O)=O)o1)C(F)(F)F` (some centres unmarked) [Example 170] was tested, and the “Emax proliferation (% activation)” value (primary human T-cells) was 89 % activation and the EC50 (primary human T-cells) was 1010 nM.

For `N[C@H]1CS(=O)(=O)c2ccc(-c3nnc(C(N)(C4CC4)C(F)(F)F)o3)cc2N(Cc2ccc(-c3noc(C4CC4)n3)cc2)C1=O` (some centres unmarked) [Example 171], the “Emax proliferation (% activation)” value (primary human T-cells) was 109 % activation and the EC50 (primary human T-cells) was 1520 nM.

For `N#CC1(c2nnc(-c3ccc4c(c3)N(Cc3ccc(-c5ccc(OC(F)(F)F)cn5)cc3)C(=O)[C@@H](N)CS4(=O)=O)o2)CCC1` [Example 172, 1-[5-[(3R)-3-amino-1,1,4-trioxo-5-[[4-[5-(trifluoromethoxy)-2-pyridyl]phenyl]methyl]-2,3-dihydro-1λ^6,5-benzothiazepin-7-yl]-1,3,4-oxadiazol-2-yl]cyclobutanecarbonitrile], the “Emax proliferation (% activation)” value (primary human T-cells) was 101 % activation and the EC50 (primary human T-cells) was 303 nM.

In the case of `CC(C)(CC#N)c1nnc(-c2ccc3c(c2)N(Cc2ccc(-c4ccc(OC(F)(F)F)cn4)cc2)C(=O)[C@@H](N)CS3(=O)=O)o1` [Example 175, 3-[5-[(3R)-3-amino-1,1,4-trioxo-5-[[4-[5-(trifluoromethoxy)-2-pyridyl]phenyl]methyl]-2,3-dihydro-1λ^6,5-benzothiazepin-7-yl]-1,3,4-oxadiazol-2-yl]-3-methyl-butanenitrile], the “Emax proliferation (% activation)” value (primary human T-cells) is reported as 105 % activation and the EC50 (primary human T-cells) is reported as 121 nM.
